Consider 7 molecules from paper PMC12384096, “TabsPBP2, a Pheromone-Binding Protein Highly Expressed in Male Antennae of Tuta absoluta, Binds Sex Pheromones and Tomato Volatiles” (Biomolecules, 2025).

Molecules are shown by their SMILES.

One assay has as its target TabsPBP2. In words: Competitive fluorescence binding assay with 1-NPN probe. Also noted: species or system Tuta absoluta. As to conditions: competitive displacement of 1-NPN (2 µM), 2 μM TabsPBP2, pH 7.4; for Ki: calculated from IC50. The procedure:
Fluorescence binding assays were performed on a Cary Eclipse Fluorescence Spectrophotometer (Agilent Technologies, Palo Alto, CA, USA) to quantify TabsPBP2’s binding affinity for sex pheromones and tomato volatiles. Using n-phenyl-1-naphthylamine (1-NPN) as a fluorescent probe (1 mM in methanol), 2 μM TabsPBP2 (in 50 mM Tris-HCl, pH 7.4) were titrated with 1-NPN (2–16 µM). Fluorescence was excited at 337 nm with emission scanned from 350 and 500 nm. Ligand binding affinities were measured via competitive assays with 1-NPN (2 µM). Titration ranges: 0.5–4 μM (sex pheromones) and 2–50 μM (tomato volatiles). The binding constant (K1-NPN) for 1-NPN was calculated, followed by calculation of the dissociation constant (Ki) from IC50 values using the equation: Ki = [IC50]/(1 + [1-NPN]/K1-NPN), where [1-NPN] represents the free concentration of 1-NPN.

In a further assay the test system is T. absoluta females. Also noted: method as in PMID 29404818. As to conditions: cited from earlier work.
The test system of another assay is adult T. absoluta. Also noted: method as in doi:10.1127/entomologia/2024/2399. The conditions noted are these: cited from earlier work.

Regarding `CC1=CC2C(CC1)C2(C)C` (stereo not shown) [2-carene, 2-Carene], at TabsPBP2, the 50% inhibitory concentration (IC50) was 7.47 ± 1.2 µM and the inhibition constant Ki is 5.5 ± 0.92 µM.
For `CC/C=C\CCO` [cis-3-hexen-l-ol, cis-3-Hexen-l-ol], the “EAG responses in females” value in the assay on T. absoluta females is “elicit EAG responses”. At TabsPBP2, the half-maximal inhibitory concentration (IC50) amounted to 19.5 ± 2.39 µM and the Ki was 13.7 ± 1.9 µM.
For the molecule `COC(=O)c1ccccc1O` [methyl salicylate, Methyl salicylate], in the assay with T. absoluta females, the “EAG responses in females” value was “elicit EAG responses”. Besides, the “behavioral effect on adult T. absoluta” value in the assay on adult T. absoluta is “repel”. Besides, at TabsPBP2, the IC50 amounted to 18.6 ± 1.38 µM and the Ki was 13 ± 1.23 µM.
Turning to `C=CC(=C)CCC=C(C)C` [myrcene, Myrcene], in the assay with T. absoluta females, the “EAG responses in females” value is reported as “elicit EAG responses”. Moreover, in the assay with adult T. absoluta, the “behavioral effect on adult T. absoluta” value is “repel”. In addition, at TabsPBP2, the IC50 was 6.22 ± 0.85 µM and the Ki is 4.68 ± 0.66 µM.
In the case of `C=C1CCC2(C(C)C)CC12` (stereo not shown) [sabinene, Sabinene], at TabsPBP2, the 50% inhibitory concentration (IC50) was found to be 13.6 ± 1.85 µM and the inhibition constant (Ki) was 11.4 ± 1.88 µM.
Taken in the same sequence, the figures for `CC1=CCC2CC1C2(C)C` (stereo not drawn) [α-pinene, α-Pinene] were 9.98 ± 0.98 µM and 7.48 ± 0.57 µM.
Turning to `CC1=CC=C(C(C)C)CC1` [α-terpinene, α-Terpinene], at TabsPBP2, the 50% inhibitory concentration (IC50) came to 14.6 ± 5.16 µM and the Ki is 10.2 ± 3.6 µM.
